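Interpolation was linear, between the two tested concentrations surrounding the appropriate level; five concentrations were tested over 48 hours in 96-well plates. Abbreviation: GI50, concentration required for 50% inhibition of growth.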 The source made the active and inactive calls. Rule as the data show it: active = GI50 up to about 1.1 µM and inactive = higher.

From ChEMBL document CHEMBL1201862, “PubChem BioAssay data set” (2004) come the findings set out here.

Test systems include HT-29; TK-10; A549; DU-145; SF-295; SW-620; SF-268; K562; IGROV-1; HCT-15; PC-3; HOP-62; SK-MEL-5; MDA-MB-231; NCI/ADR-RES; KM12; NCI-H23; RPMI-8226; COLO 205; HL-60.
Holding throughout (assay): NCI anticancer screen, dose series, 48 h

Consider `Cc1c(C)n(-c2ccccc2)c2nc(S(C)(=O)=O)nc(S(C)(=O)=O)c12`, for which the GI50 in the test with HT-29 is 1.92 µM (inactive); with TK-10, 1.58 µM (inactive); with A549, 16 µM (inactive); with DU-145, 14.6 µM (inactive); in the test on SF-295, 16.9 µM (inactive); with SW-620, 0.228 µM (active). Further, the GI50 in the test on SF-268 is 14 µM (inactive); with K562 it was 1.4 µM (inactive); with IGROV-1, 4.72 µM (inactive); in the test on HCT-15, 1.61 µM; in the test on PC-3, 5.06 µM (inactive); with HOP-62, 16.8 µM (inactive). In addition, the GI50 in the test on SK-MEL-5 was 12.7 µM (inactive); with MDA-MB-231 it was 5.73 µM (inactive); in the test on NCI/ADR-RES, 23.1 µM (inactive); in the test with KM12 it was 13.7 µM (inactive); with NCI-H23 it was 7.82 µM (inactive); in the test on RPMI-8226 it was 2.65 µM (inactive). Also, the GI50 in the test on COLO 205 was 1.8 µM (inactive); with HL-60 it was 1.58 µM (inactive).

In the case of `O=c1c2cc(I)ccc2nc(S)n1Cc1ccccc1`, the GI50 in the test with HT-29 was 32.9 µM (inactive); in the test with TK-10, 16.8 µM (inactive); in the test on A549 it was 15.9 µM (inactive); in the test with DU-145, 20.2 µM (inactive); with SF-295 it was 9.02 µM (inactive); in the test with SW-620, 59 µM (inactive). Also, the GI50 was 11 µM (inactive) in the test on SF-268; 35.6 µM (inactive) in the test on K562; 4.07 µM (inactive) in the test with IGROV-1; 32.1 µM with HCT-15; 13.7 µM (inactive) in the test with PC-3; 13.3 µM (inactive) in the test with HOP-62. For the same compound, the GI50 with SK-MEL-5 is 6.17 µM (inactive); in the test on MDA-MB-231 it was 13.1 µM (inactive); in the test with NCI/ADR-RES, 18.5 µM (inactive); in the test on KM12, 9.08 µM (inactive); in the test with NCI-H23 it was 7.59 µM (inactive); with RPMI-8226 it was 6.61 µM (inactive). In addition, the GI50 was > 100 µM (inactive) with COLO 205 and 6.84 µM (inactive) in the test with HL-60.

`O=c1[nH]c(=O)n(C2OC(CO)C(O)C2O)c2c1CCCC2` (stereo not given): the GI50 in the test with HT-29, in the test with TK-10, in the test with A549, in the test with DU-145, in the test on SF-295 and with SW-620 was > 100 µM (inactive) each time. Moreover, the GI50 in the test on SF-268 is > 100 µM (inactive); with K562, > 100 µM (inactive); in the test with IGROV-1 it was > 100 µM (inactive); in the test on HCT-15, more than 100 µM; in the test with PC-3 it was > 100 µM (inactive); in the test with HOP-62 it was > 100 µM (inactive). In addition, the GI50 with SK-MEL-5, in the test with MDA-MB-231, in the test with NCI/ADR-RES, in the test on KM12, with NCI-H23 and with RPMI-8226 was > 100 µM (inactive) throughout. The GI50 in the test with COLO 205 and in the test with HL-60 was > 100 µM (inactive) each time.

For `CC1C2CC(C(S(=O)(=O)N3CCOCC3)/C2=N\O)C1(C)C` (stereo not given), the GI50 with HT-29, with TK-10, in the test with A549, in the test on DU-145, in the test on SF-295 and in the test on SW-620 was > 100 µM (inactive) in each case. The GI50 with SF-268 was > 100 µM (inactive); in the test on K562 it was > 100 µM (inactive); with IGROV-1, > 100 µM (inactive); in the test with HCT-15, more than 100 µM; with PC-3 it was > 100 µM (inactive); in the test with HOP-62 it was > 100 µM (inactive). Further, the GI50 with SK-MEL-5, with MDA-MB-231, with NCI/ADR-RES, in the test with KM12, in the test with NCI-H23 and in the test on RPMI-8226 was > 100 µM (inactive) throughout. Besides, the GI50 in the test with COLO 205 and with HL-60 was > 100 µM (inactive) throughout.

Turning to `O=C(O)C1(Cc2ccc3c(c2)CCC3)Cc2ccccc2C1`, the GI50 in the test on HT-29 is 88.3 µM (inactive); in the test with TK-10, > 100 µM (inactive); with A549, 43 µM (inactive); with DU-145, > 100 µM (inactive); in the test on SF-295, 38.9 µM (inactive); in the test on SW-620 it was > 100 µM (inactive). Besides, the GI50 with SF-268 is 52.7 µM (inactive); with K562, 56.8 µM (inactive); with IGROV-1, > 100 µM (inactive); with HCT-15 it was 54.2 µM; in the test with PC-3 it was 63.5 µM (inactive); in the test with HOP-62 it was 84.5 µM (inactive). Further, the GI50 with SK-MEL-5 was > 100 µM (inactive); in the test with MDA-MB-231, > 100 µM (inactive); with NCI/ADR-RES it was 78.2 µM (inactive); in the test with KM12, 46.3 µM (inactive); in the test with NCI-H23, 67.6 µM (inactive); in the test with RPMI-8226 it was 71.1 µM (inactive). For the same compound, the GI50 in the test with COLO 205 is 30.2 µM (inactive); in the test on HL-60, 35.2 µM (inactive).

As to `CC1=NN=C(N)N/C1=C/C(Sc1ccc(Cl)cc1)c1cccs1` (stereo not given), the GI50 with HT-29 was 12.3 µM (inactive); with TK-10 it was 36.2 µM (inactive); in the test on A549 it was 10.3 µM (inactive); with DU-145, 23.1 µM (inactive); in the test with SF-295, 11.7 µM (inactive); with SW-620, 15.9 µM (inactive). For the same compound, the GI50 with SF-268 is 10.6 µM (inactive); in the test with K562, 13.9 µM (inactive); in the test with IGROV-1, 11.4 µM (inactive); with HCT-15, 6.12 µM; in the test on PC-3, 12.8 µM (inactive); in the test with HOP-62, 12.5 µM (inactive). Besides, the GI50 in the test with SK-MEL-5 is 11.5 µM (inactive); in the test on MDA-MB-231, > 10 µM (inactive); in the test with NCI/ADR-RES, 18.5 µM (inactive); in the test on KM12 it was 11.1 µM (inactive); with NCI-H23 it was 13.9 µM (inactive); in the test with RPMI-8226, 12.2 µM (inactive). Also, the GI50 in the test with COLO 205 is 22.1 µM (inactive); with HL-60 it was 4.07 µM (inactive).

Consider `O=C(CCCN1CCC2(CC1)CC(c1ccccc1)OC2=O)c1ccc(F)cc1` (stereo not given), for which the GI50 was 9.06 µM (inactive) in the test on HT-29; 59 µM (inactive) in the test with TK-10; > 100 µM (inactive) in the test on A549; 64.9 µM (inactive) in the test on DU-145; 25 µM (inactive) in the test with SF-295; 40.1 µM (inactive) in the test with SW-620. Further, the GI50 in the test with SF-268 is 53.7 µM (inactive); in the test with K562, 29.5 µM (inactive); in the test with IGROV-1 it was > 100 µM (inactive); with HCT-15, 37.2 µM; in the test on PC-3 it was 40.2 µM (inactive); in the test with HOP-62, 29.6 µM (inactive). In addition, the GI50 with SK-MEL-5 is 15 µM (inactive); with MDA-MB-231, 84.5 µM (inactive); with NCI/ADR-RES, 92 µM (inactive); in the test with KM12, 35 µM (inactive); in the test with NCI-H23 it was 53.7 µM (inactive); in the test on RPMI-8226, 30.1 µM (inactive). Besides, the GI50 in the test with COLO 205 is 17.3 µM (inactive); in the test with HL-60, 25.6 µM (inactive).

As for `C=CCNC(=O)CN(CC(=O)O)C1CCCCC1N(CC(=O)O)CC(=O)O` (stereo not given), the GI50 with HT-29, in the test with TK-10, with A549, in the test on DU-145, in the test with SF-295 and in the test with SW-620 was > 100 µM (inactive) in each case. Besides, the GI50 is > 100 µM (inactive) in the test on SF-268; > 100 µM (inactive) in the test with K562; > 100 µM (inactive) in the test on IGROV-1; more than 100 µM with HCT-15; > 100 µM (inactive) in the test on PC-3; > 100 µM (inactive) with HOP-62. The GI50 in the test with SK-MEL-5, in the test on MDA-MB-231, in the test with NCI/ADR-RES, with KM12, in the test on NCI-H23 and in the test with RPMI-8226 was > 100 µM (inactive) each time. Further, the GI50 in the test with COLO 205 and in the test with HL-60 was > 100 µM (inactive) each time.

For the compound `CN1CC[C@@]2(c3cccc(O)c3)CC(=O)/C(=C/c3ccccc3)[C@H]1C2.[O-][Cl+3]([O-])([O-])O`, the GI50 was 3.18 µM (inactive) in the test on HT-29; 15.7 µM (inactive) with TK-10; 15 µM (inactive) with A549; 15.8 µM (inactive) in the test with DU-145; 11.3 µM (inactive) with SF-295; 2.54 µM (inactive) in the test with SW-620. In addition, the GI50 in the test on SF-268 was 4.28 µM (inactive); with K562 it was 2.58 µM (inactive); in the test with IGROV-1, 13.7 µM (inactive); in the test with HCT-15, 5.89 µM; in the test on PC-3 it was 4.29 µM (inactive); in the test on HOP-62, 18.5 µM (inactive). Further, the GI50 with SK-MEL-5 is 17.8 µM (inactive); with MDA-MB-231 it was 6.82 µM (inactive); in the test with NCI/ADR-RES it was 3.85 µM (inactive); with KM12, 3.81 µM (inactive); with NCI-H23, 16 µM (inactive); with RPMI-8226 it was 2.44 µM (inactive). For the same compound, the GI50 in the test with COLO 205 was 8.05 µM (inactive); in the test on HL-60, 2.25 µM (inactive).

Turning to `Cc1nc2ccc(NCCN(C)C)c3c(=O)c4cc(O)ccc4n1c23`, the GI50 in the test on HT-29 was 0.156 µM (active); in the test with TK-10, 2.75 µM (inactive); in the test on A549, 0.0933 µM (active); in the test on DU-145, 1.46 µM (inactive); in the test on SF-295, 1.04 µM (active); with SW-620 it was 0.122 µM (active). Besides, the GI50 with SF-268 was 0.75 µM (active); in the test with K562, 0.298 µM (active); in the test with IGROV-1 it was 0.839 µM (active); in the test with HCT-15 it was 0.394 µM; with PC-3, 0.653 µM (active); with HOP-62, 0.433 µM (active). Further, the GI50 with SK-MEL-5 is 1.73 µM (inactive); in the test on MDA-MB-231 it was 2.56 µM (inactive); in the test with NCI/ADR-RES it was 1.27 µM (inactive); with KM12, 0.783 µM (active); with NCI-H23 it was 0.318 µM (active); with RPMI-8226 it was 1.19 µM (inactive). The GI50 in the test on COLO 205 was 0.445 µM (active); in the test with HL-60 it was 0.662 µM (active).
